Measurements: patent US7067665B2, “Oxybenzamide derivatives useful for inhibiting factor Xa or Vlla” (Sanofi-Aventis Deutschland GmbH, priority 2000, dated 2006)
pKi: −log10 of the molar value. Where two headings read alike, the source gives them in different places.

Target: T1, human factor Xa (Homo sapiens, UniProt P00742)
T1 construct: 25 μl human factor Xa (Enzyme Research Laboratories, Inc; South Bend, Ind.); purchased Enzyme Research Laboratories, Inc; South Bend, Ind
Experiment: Factor Xa chromogenic assay (substrate S-2765);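 note: purified enzyme, compound preincubated with the enzyme for 10 min before substrate addition starts the reaction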
Type: biochemical
Conditions: read-out: Ki(FXa)

[1] = inhibition constant for inhibition of factor Xa, IC50 corrected for substrate competition, 25° C., enzyme 0.5 nM, substrate 140 μM

T1 sequence (P00742 235-488 limits assumed): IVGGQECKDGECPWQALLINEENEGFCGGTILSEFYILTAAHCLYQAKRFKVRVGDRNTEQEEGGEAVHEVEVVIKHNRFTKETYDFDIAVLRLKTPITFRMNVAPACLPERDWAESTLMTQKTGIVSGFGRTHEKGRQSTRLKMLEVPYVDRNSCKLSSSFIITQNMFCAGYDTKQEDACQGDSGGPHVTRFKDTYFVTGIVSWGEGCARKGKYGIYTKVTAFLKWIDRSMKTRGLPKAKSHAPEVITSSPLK
T1 sequence (P00742 41-179 partner limits assumed): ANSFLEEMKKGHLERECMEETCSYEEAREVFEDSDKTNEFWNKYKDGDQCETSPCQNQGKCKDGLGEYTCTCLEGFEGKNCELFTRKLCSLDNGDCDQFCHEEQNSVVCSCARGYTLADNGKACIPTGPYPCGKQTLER

SMILES	pKi	pKi [1]
O=C(c1ccc(Cl)c(OCCc2ccc(Cl)cc2Cl)c1)N1CCN(Cc2cc[n+](O)cc2)CC1 [Example 187, {4-Chloro-3-[2-(2,4-dichloro-phenyl)-ethoxy]-phenyl}-[4-(1-oxy-pyridin-4-ylmethyl)-piperazin-1-yl]-methanone]	6.02	–
COc1ccc(C(=O)N2CCN(CCN(C)C)CC2)cc1OCCc1ccc(Cl)cc1Cl [Example 197]	5.22	–
O=C(NCC1CCN(c2ccncc2)CC1)c1cc(OCCc2ccc(Cl)cc2Cl)ccc1[N+](=O)[O-] [Example 84]	–	5.31
O=C(NCC1CCN(c2ccncc2)CC1)c1cc(O)c(Br)c(OCCc2ccc(Cl)cc2Cl)c1 [Example 86]	7.59	–
O=C(c1ccc(Br)c(OCCc2ccc(Cl)cc2Cl)c1)N1CCN(Cc2ccncc2)CC1 [Example 176, {4-Bromo-3-[2-(2,4-dichloro-phenyl)-ethoxy]-phenyl}-(4-pyridin-4-ylmethyl-piperazin-1-yl)-methanone]	6.44	–
Cc1ccc(C(=O)NCC2CCN(c3ccncc3)CC2)cc1OCc1ccc(OC(F)(F)F)cc1 [Example 242]	5.53	–
Cc1ccc(C(=O)NCC2CCN(c3ccncc3)CC2)cc1OCc1ccc(Cl)cc1 [Example 239]	5.42	–
Cc1cc(N2CCC(CNC(=O)c3ccc(Cl)c(OCCc4ccc(Cl)nc4)c3)CC2)ccn1 [Example 167, 4-Chloro-3-[2-(6-chloro-pyridin-3-yl)-ethoxy]-N-(2′-methyl-3,4,5,6-tetrahydro-2H-[1,4′]bipyridinyl-4-ylmethyl)-benzamide]	6.56	–
O=C(NCC1CCN(c2ccncc2)CC1)c1cc(OCCc2ccc(Cl)cc2Cl)ccc1Cl [Example 81]	6.62	–
COc1ccc(C(=O)NCC2CCN(c3ccnc(C)c3)CC2)cc1OCCc1ccc(Cl)cc1 [Example 171]	6.89	–
COc1ccc(C(=O)NC2CCN(C3CCOCC3)CC2)cc1OCCc1ccc(Cl)cc1Cl [Example 129]	4.60	–
O=C(NCC1CCN(c2cc[n+](O)cc2)CC1)c1ccc(Cl)c(OCCc2ccc(Cl)cc2)c1 [Example 231, 4-Chloro-3-[2-(4-chloro-phenyl)-ethoxy]-N-(1′-oxy-3,4,5,6-tetrahydro-2H-[1,4′]bipyridinyl-4-ylmethyl)-benzamide]	6.64	–
COc1ccc(C(=O)N2CCN(Cc3ccccn3)CC2)cc1OCCc1ccc(Cl)cc1Cl [Example 2, {3-[2-(2,4-Dichlorophenyl)-ethoxy]-4-methoxy-phenyl}-(4-pyridin-2-ylmethyl-piperazin-1-yl)-methanone]	–	5.81
CC(C)Oc1ccc(C(=O)N2CCN(Cc3ccncc3)CC2)cc1OCCc1ccc(Cl)cc1Cl [Example 184, {3-[2-(2,4-Dichloro-phenyl)-ethoxy]-4-isopropoxy-phenyl}-(4-pyridin-4-ylmethyl-piperazin-1-yl)-methanone]	6.21	–
CCN(CC)C(=O)c1cc(OCCc2ccc(Cl)cc2Cl)cc(C(=O)NCC2CCN(c3ccncc3)CC2)c1 [Example 232, 5-[2-(2,4-Dichloro-phenyl)-ethoxy]-N,N-diethyl-N′-(3,4,5,6-tetrahydro-2H-[1,4′]bipyridinyl-4-ylmethyl)-isophthalamide]	6.72	–
O=C(NCC1CCN(c2ccncc2)CC1)c1cc(OCCc2ccc(Cl)cc2Cl)c[n+]([O-])c1 [Example 102, 5-[2-(2,4-Dichloro-phenyl)-ethoxy]-1-oxy-N-(3,4,5,6-tetrahydro-2H-[1,4′]bipyridinyl-4-ylmethyl)-nicotinamide]	6.20	–
O=C(c1ccc(Cl)c(OCCc2ccc(Cl)cc2Cl)c1)N1CCN(Cc2ccncc2)CC1 [Example 182, {4-Chloro-3-[2-(2,4-dichloro-phenyl)-ethoxy]-phenyl}-(4-pyridin-4-ylmethyl-piperazin-1-yl)-methanone]	6.51	–

Other lines, results leading:

pKi	pKi [1]	SMILES
6.19	–	O=C(NCC1CCN(c2cc[n+](O)cc2)CC1)c1ccc(Cl)c(OCCc2ccc(Cl)cc2Cl)c1 [Example 230, 4-Chloro-3-[2-(2,4-dichloro-phenyl)-ethoxy]-N-(1′-oxy-3,4,5,6-tetrahydro-2H-[1,4′]bipyridinyl-4-ylmethyl)-benzamide]
–	5.37	COc1ccc(C(=O)NCCN2CCCCC2)cc1OCCc1ccc(Cl)cc1Cl [Example 16, 3-[2-(2,4-Dichloro-phenyl)-ethoxy]-4-methoxy-N-(2-piperidin-1-yl-ethyl)-benzamide]
5.37	–	COc1ccc(C(=O)N2CCCN(CCCN3CCCC3)CC2)cc1OCCc1ccc(Cl)cc1Cl [Example 196]
5.66	–	COc1cccc(COc2cc(C(=O)NCC3CCN(c4ccncc4)CC3)ccc2C)c1 [Example 241]
6.52	–	O=C(NCC1CCN(c2ccncc2)CC1)c1cccc(OCCc2ccc(Cl)cc2Cl)n1 [Example 85]
–	6.51	CCOc1ccc(C(=O)N2CCN(Cc3ccncc3)CC2)cc1OCCc1ccc(Cl)cc1Cl [Example 9, {3-[2-(2,4-Dichloro-phenyl)-ethoxy]-4-ethoxy-phenyl}-(4-pyridin-4-ylmethyl-piperazin-1-yl)-methanone]
6.40	–	O=C(c1cc(OCCc2ccc(Cl)cc2Cl)c2c(c1)OCO2)N1CCN(Cc2ccncc2)CC1 [Example 186, {7-[2-(2,4-Dichloro-phenyl)-ethoxy]-benzo[1,3]dioxol-5-yl}-(4-pyridin-4-ylmethyl-piperazin-1-yl)-methanone]
6.66	–	COc1cc(C(=O)NCC2CCN(c3cc[n+](O)cc3)CC2)cc(OCCc2ccc(Cl)cc2Cl)c1Cl [Example 228, 4-Chloro-3-[2-(2,4-dichloro-phenyl)-ethoxy]-5-methoxy-N-(1′-oxy-3,4,5,6-tetrahydro-2H-[1,4′]bipyridinyl-4-ylmethyl)-benzamide]
7.02	–	COc1cc(C(=O)N2CCN(Cc3ccncc3)CC2)cc(OCCc2ccc(Cl)cc2Cl)c1Br [Example 19, {4-Bromo-3-[2-(2,4-dichlorophenyl)-ethoxy]-5-methoxyphenyl}-(4-pyridin-4-ylmethyl-piperazin-1-yl)-methanone]
7.36	–	Cc1cc(N2CCC(CNC(=O)c3ccc(Cl)c(OCCc4ccc(Cl)cc4)c3)CC2)ccn1 [Example 223, 4-Chloro-3-[2-(4-chloro-phenyl)-ethoxy]-N-(2′-methyl-3,4,5,6-tetrahydro-2H-[1,4′]bipyridinyl-4-ylmethyl)-benzamide]
–	5.19	COc1ccc(C(=O)NCC2CCN(C3CCCC3)CC2)cc1OCCc1ccc(Cl)cc1Cl [Example 54, N-(1-Cyclopentyl-piperidin-4-ylmethyl)-3-[2-(2,4-dichloro-phenyl)-ethoxy]-4-methoxy-benzamide]
5.46	–	COc1ccc(C(=O)NCC2CCN(c3ccncc3)CC2)cc1NS(=O)(=O)c1cc2ccc(Cl)cc2s1 [Example 97, 3-(6-Chloro-benzo[b]thiophene-2-sulfonylamino)-4-methoxy-N-(3,4,5,6-tetrahydro-2H-[1,4′]bipyridinyl-4-ylmethyl)-benzamide]
–	6.78	COc1cc(C(=O)N2CCN(Cc3ccncc3)CC2)cc(OCCc2ccc(Cl)cc2Cl)c1OC [Example 5, {3-[2-(2,4-Dichloro-phenyl)-ethoxy]-4,5-dimethoxy-phenyl}-(4-pyridin-4-ylmethyl-piperazin-1-yl)-methanone]
6.53	–	COc1ccc(C(=O)NCC2CCN(c3ccncc3)CC2)cc1NC(=O)Cc1ccc(Cl)cc1Cl [Example 100, 3-[2-(2,4-Dichloro-phenyl)-acetylamino]-4-methoxy-N-(3,4,5,6-tetrahydro-2H-[1,4′]bipyridinyl-4-ylmethyl)-benzamide]
7.09	–	O=C(O)c1cc(OCCc2ccc(Cl)cc2Cl)cc(C(=O)NCC2CCN(c3ccncc3)CC2)c1 [Example 226, 5-[2-(2,4-Dichlorophenyl)-ethoxy]-N-(3,4,5,6-tetrahydro-2H-[1,4′]bipyridinyl-4-ylmethyl)-isophthalamic acid]
5.19	–	Cc1ccc(C(=O)NCC2CCN(c3ccnc(Cl)n3)CC2)cc1OCCc1ccc(Cl)cc1Cl [Example 172, N-[1-(2-Chloro-pyrimidin-4-yl)-piperidin-4-ylmethyl]-3-[2-(2,4-dichloro-phenyl)-ethoxy]-4-methyl-benzamide]
7.19	–	COc1cc(C(=O)NCC2CCN(c3ccnc(C)c3)CC2)cc(OCCc2ccc(Cl)cc2)c1Br [Example 225, 4-Bromo-3-[2-(4-chloro-phenyl)-ethoxy]-5-methoxy-N-(2′-methyl-3,4,5,6-tetrahydro-2H-[1,4′]bipyridinyl-4-ylmethyl)-benzamide]
5.17	–	COc1ccc(C(=O)N2CCN(CCCN(C)C)CC2)cc1OCCc1ccc(Cl)cc1Cl [Example 195]
5.30	–	COc1ccc(C(=O)N2CCN(CCN3CCCC3)CC2)cc1OCCc1ccc(Cl)cc1Cl [Example 198]
–	5.21	COc1ccc(C(=O)NCC2CCN(C3CCCCCC3)CC2)cc1OCCc1ccc(Cl)cc1Cl [Example 57]
6.12	–	COc1ccc(C(=O)NCC2CCN(c3ccncc3)CC2)cc1Oc1nc2ccc(Cl)cc2s1 [Example 94]
–	7.60	COc1cc(C(=O)NCC2CCN(c3ccncc3)CC2)cc(OCCc2ccc(Cl)cc2)c1Cl [Example 202, 4-Chloro-3-[2-(4-chloro-phenyl)-ethoxy]-5-methoxy-N-(3,4,5,6-tetrahydro-2H-[1,4′]bipyridinyl-4-ylmethyl)-benzamide]
6.23	–	COc1ccc(C(=O)NCC2CCN(c3ccncc3)CC2)cc1OCCc1ccc(Cl)nc1 [Example 145]
–	5.36	COc1ccc(C(=O)NCC2CCN(C3CCCCC3)CC2)cc1OCCc1ccc(Cl)cc1Cl [Example 56]
7.14	–	COc1cc(C(=O)NCC2CCN(c3ccnc(C)c3)CC2)cc(OCCc2ccc(Cl)cc2)c1Cl [Example 222, 4-Chloro-3-[2-(4-chloro-phenyl)-ethoxy]-5-methoxy-N-(2′-methyl-3,4,5,6-tetrahydro-2H-[1,4′]bipyridinyl-4-ylmethyl)-benzamide]
–	5.03	COc1ccc(C(=O)NCC2CCC(CN)CC2)cc1OCCc1ccc(Cl)cc1Cl (stereo not shown) [Example 31, N-(4-Aminomethyl-cyclohexylmethyl)-3-[2-(2,4-dichloro-phenyl)-ethoxy]-4-methoxy-benzamide]
